Assay results reported in patent US20210179577A1, “AROMATIC SULFONAMIDE DERIVATIVES FOR THE TREATMENT OF ISCHEMIC STROKE” (Bayer Aktiengesellschaft, priority 2017, published 2021).

Key:
Assay type in all cases: cell-based
hP2X4 = biological target: T1, hP2X4 (Homo sapiens, UniProt Q99571); test: Human P2X4 HEK Cell Electrophysiology Assay B (QPatch); conditions: ATP 5 microM, -90 mV; read-out: Human P2X4 HEK Cells (QPatch Electrophysiology) avg IC50
T1 construct: expressed in transfected cells; host or cells: HEK-293 mito-Photina, clone 2a/4
T1 sequence (Q99571 1-388): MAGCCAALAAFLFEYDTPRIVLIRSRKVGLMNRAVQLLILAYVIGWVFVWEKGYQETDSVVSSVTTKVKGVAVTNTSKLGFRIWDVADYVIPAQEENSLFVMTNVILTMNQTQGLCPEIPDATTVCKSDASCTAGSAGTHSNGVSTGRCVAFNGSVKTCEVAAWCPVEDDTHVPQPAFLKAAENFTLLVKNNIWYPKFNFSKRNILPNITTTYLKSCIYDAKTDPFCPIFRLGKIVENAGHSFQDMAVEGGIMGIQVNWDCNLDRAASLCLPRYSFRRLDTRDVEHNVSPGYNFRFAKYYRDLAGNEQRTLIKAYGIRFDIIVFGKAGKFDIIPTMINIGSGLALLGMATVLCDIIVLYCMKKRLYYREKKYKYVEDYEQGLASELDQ
Protocol: Cell culture conditions: HEK-293 mito-Photina pcDNA3(neo-)/pPURO N/pcDNA3_P2RX4, clone 2a/4 (HEK-293 mito-Photina/hP2RX4) cells were cultured in EMEM Minimum Essential Medium Eagle with Earl's salts Balanced Salt Solution (BioWhittaker cat. BE12-125F) supplemented with 5 mL of 200 mM Ultraglutaminel (BioWhittaker cat. BE17-605E/U1), 5 mL of 100× Penicillin/Streptomycin (BioWhittaker cat. DE17-602E; final concentration 1%), 4 mL of 50 mg/mL G418 (Sigma cat. G8168-100 mL; final concentration 400 μg/mL), 10 μL of 10 mg/mL Puromicin (InvivoGen cat. ant-pr-1; final concentration 0.2 μg/mL) and 50 mL of Fetal Bovine Serum (Sigma cat. F7524; final concentration 10%).
Experimentalprotocol: HEK-293 cell lines are seeded 72 or 96 hours before experiment, at a concentration of 5 or 2.5 million cells, respectively onto a T225 flask. Just before the experiments cells are washed twice with D-PBS w/o Ca2+/Mg2+(Euroclone cat. ECB4004L) and detached from the flask with trypsin-EDTA (Sigma, cat. T4174 diluted 1/10). Cells are then re-suspended in the suspension solution: 25 mL EX-CELL ACF CHO medium (Sigma, cat. C5467); 0.625 mL HEPES (BioWhittaker, cat. BE17-737E); 0.25 mL of 100× Penicillin/Streptomycin (BioWhittaker, cat. DE17-602E), 0.1 mL of Soybean Trypsin Inhibitor 10 mg/mL (Sigma, cat. T6522) and placed on the QPatch 16X.
Compound preparation and storage: Compound stock solutions (10 mM; 100% DMSO; stored at −20° C.) were used. Fresh solutions from stock (1 or 3 mM, 100% DMSO) were prepared just before the experiments (0.1% final DMSO concentration).
Patch clamp analysis with QPatch16X (FIG. 1): Standard whole-cell voltage clamp experiments are performed at room temperature using the multihole technology.
For the voltage clamp experiments on hP2X4, data are sampled at 2 KHz. After establishment of the seal and the passage in the whole cell configuration, the cells are held at −90 mV and the hP2X4 current is evoked by the agonist in the absence (vehicle period, i.e. 0.1% DMSO) or in the presence of the compound under investigation at increasing concentrations; see the application protocol in FIG. 1.
Output: the maximum inward current induced by the agonist (ATP 5 microM).
The intracellular solution contained (mM) 135 CsF, 10 NaCl, 1 EGTA, 10 HEPES (pH 7.2 with CsOH) whereas the extracellular solution (mM) 145 NaCl, 4 KCl, 0.5 MgCl2, 1 CaCl2, […], 10 Glucose (pH 7.4 with NaOH).
For data collection, the Sophion software was used and the analysis was performed off-line using Excel and GraphPad Prism.
When possible, i.e. when the % of inhibition with the highest concentration tested was more than 50%, the dose-response curves data were fitted with the following equation:
[X is log of concentration; Y is normalized response (100% down to 0%, decreasing as X increases); Log IC50 same log units as X; HillSlope is unitless slope factor or hill slope]

human P2X4 [1] = biological target: T2, human P2X4 (Homo sapiens, UniProt Q99571); test: Human P2X4 HEK Cell FLIPR Assay; design: expressed in transfected cells; host or cells: HEK293; conditions: HEK293 cells, agonist Bz-ATP at EC80
T2 sequence (Q99571 1-388): T1 sequence (Q99571 1-388)
Protocol: HEK293 cells stably expressing human P2X4 were plated in poly-D-lysine-coated 384-well plates at a seeding density of 30000 cells/well and incubated overnight. P2X4 function was assessed by measuring intracellular calcium changes using the calcium-chelating dye Fluo8-AM (Molecular Devices) on a fluorescent imaging plate reader (FLEX/FLIPR station; Molecular Devices). On the day of the assay, the medium was removed and the cells were incubated for 30 min at 37° C. and 5% CO2 in 30 μL of dye buffer (Hank's balanced salt solution, 10 mM HEPES, 1.8 mM CaCl2, 1 mM MgCl2, 2 mM probenecid, 5 mM D-glucose monohydrate, 5 μM Fluo8-AM, pH=7.4). Compounds diluted in probenecid buffer (Hank's balanced salt solution, 10 mM HEPES, 1.8 mM CaCl2, 1 mM MgCl2, 2 mM probenecid, 5 mM D-glucose monohydrate, pH=7.4) were added in a volume of 10 μL and allowed to incubate for 30 min at room temperature. The final assay DMSO concentration was 0.5%. The agonist, Bz-ATP (Tocris), was added in a volume of 10 μL at a concentration representing the EC80 value. The EC80 value of Bz-ATP was determined each assay day prior to compound profiling. The fluorescence was measured for an interval of 120 sec at 2 sec intervals. The excitation and emission wavelengths used to monitor fluorescence were 470-495 nm and 515-575 nm, respectively. The data was analyzed based on the increase in peak relative fluorescence units (RFU) compared to the basal fluorescence and the data was normalized to the agonist control. The compounds were tested in triplicates per plate and mean values were plotted in Excel XL-Fit to determine IC50 values, percentage of maximal inhibition and the Hill coefficients.

rat P2X4 = biological target: T3, rat P2X4 (Rattus norvegicus, UniProt P51577); test: FLIPR assay, rat P2X4 1321N1 Astrocytoma Cells; conditions: 1321N1 Astrocytoma cells
T3 construct: expressed in transfected cells; host or cells: 1321N1 astrocytoma cells
T3 sequence (P51577 1-388): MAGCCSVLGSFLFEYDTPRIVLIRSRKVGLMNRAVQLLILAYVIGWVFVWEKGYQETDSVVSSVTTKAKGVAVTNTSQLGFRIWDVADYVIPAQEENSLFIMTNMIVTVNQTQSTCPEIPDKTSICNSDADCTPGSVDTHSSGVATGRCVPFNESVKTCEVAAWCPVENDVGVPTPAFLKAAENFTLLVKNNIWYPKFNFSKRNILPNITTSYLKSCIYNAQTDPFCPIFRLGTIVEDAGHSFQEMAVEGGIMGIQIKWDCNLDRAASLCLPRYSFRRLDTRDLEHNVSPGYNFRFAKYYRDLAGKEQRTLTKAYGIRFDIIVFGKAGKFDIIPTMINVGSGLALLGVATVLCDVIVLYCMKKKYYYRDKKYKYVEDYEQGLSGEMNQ
Protocol: (§1) 1321N1 Astrocytoma cells stably expressing human P2X4 or rat P2X4 or mouse P2X4 were plated in Collagen ITO-treated microplate at a seeding density of 10000 cells/well and incubated overnight. P2X4 function was assessed by measuring intracellular calcium changes using the calcium-chelating dye Fluo8-AM (Molecular Devices) on a fluorescent imaging plate reader (FLEX/FLIPR station; Molecular Devices). On the day of the assay, the medium was removed and the cells were incubated for 30 min at […] and 5% CO2 in 30 μL of dye buffer (Hank's balanced salt solution, 10 mM HEPES, 1.8 mM CaCl2, 1 mM MgCl2, 2 mM probenecid, 5 mM D-glucose monohydrate, 5 μM Fluo8-AM, pH=7.4). Compounds diluted in probenecid buffer (Hank's balanced salt solution, 10 mM HEPES, 1.8 mM CaCl2, 1 mM MgCl2, 2 mM probenecid, 5 mM D-glucose monohydrate, pH=7.4) were added in a volume of 10 μL and allowed to incubate for 30 min at room temperature. The final assay DMSO concentration was 0.25%. The agonist, Mg-ATP (Sigma), was added in a volume of 10 μL at a concentration representing the EC80 value. EC80 was determined to be 0.5 μM for human and mouse P2X4 and 5 μM for rat P2X4. The fluorescence was measured for an interval of 120 sec at 2 sec intervals. The excitation and emission wavelengths used to monitor fluorescence were 470-495 nm and 515-575 nm, respectively. The data was analyzed based on the increase in peak relative fluorescence units (RFU) compared to the basal fluorescence and the data was normalized to the agonist control. The compounds were tested in triplicates per plate and mean values were plotted in Excel XLFit to determine IC50 values, percentage of maximal inhibition and the Hill coefficients.

mouse P2X4 = biological target: T4, mouse P2X4 (Mus musculus, UniProt Q9JJX6); test: FLIPR assay, mouse P2X4 1321N1 Astrocytoma Cells; conditions: 1321N1 Astrocytoma cells
T4 construct: expressed in transfected cells; host or cells: 1321N1 astrocytoma cells
T4 sequence (Q9JJX6 1-388): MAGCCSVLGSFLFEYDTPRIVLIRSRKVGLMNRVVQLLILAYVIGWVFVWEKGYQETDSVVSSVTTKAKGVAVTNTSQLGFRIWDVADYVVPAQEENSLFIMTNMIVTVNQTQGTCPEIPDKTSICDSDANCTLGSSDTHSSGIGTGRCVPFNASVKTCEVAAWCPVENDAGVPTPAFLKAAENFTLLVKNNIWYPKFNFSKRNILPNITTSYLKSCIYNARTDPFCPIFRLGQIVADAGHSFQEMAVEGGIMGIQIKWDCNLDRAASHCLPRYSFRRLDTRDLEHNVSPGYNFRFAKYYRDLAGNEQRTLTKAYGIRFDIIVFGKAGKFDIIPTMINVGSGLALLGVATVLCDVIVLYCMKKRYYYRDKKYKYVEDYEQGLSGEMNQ
Protocol: as §1

human P2X4 [2] = biological target: T2, human P2X4; test: FLIPR assay, human P2X4 1321N1 Astrocytoma Cells; design: expressed in transfected cells; conditions: 1321N1 Astrocytoma cells
Protocol: as §1

IC50 (hP2X4)	IC50 (human P2X4 [1])	EC80 of the agonist, rat P2X4 (rat P2X4)	EC80 of the agonist, mouse P2X4 (mouse P2X4)	EC80 of the agonist, human P2X4 (human P2X4 [2])	SMILES
205 nM	132 nM	–	–	–	Cn1cc(-c2ccc(NC(=O)Cc3ccccc3Cl)cc2S(N)(=O)=O)cn1 [Example 360, 2-(2-Chlorophenyl)-N-[4-(1-methyl-1H-pyrazol-4-yl)-3-sulfamoylphenyl]acetamide]
2580 nM	1240 nM	–	–	–	NS(=O)(=O)c1cc(NC(=O)Cc2ccccc2F)cnc1-n1cc(C(F)(F)F)cn1 [Example 381, 2-(2-Fluorophenyl)-N-{5-sulfamoyl-6-[4-(trifluoromethyl)-1H-pyrazol-1-yl]pyridin-3-yl}acetamide]
–	–	5 µM	0.5 µM	0.5 µM	Nc1ncnc2c1ncn2[C@@H]1O[C@H](COP(=O)(O)OP(=O)([O-])OP(=O)([O-])O)[C@@H](O)[C@H]1O.[Mg+2] [Mg-ATP, reference compound]
